# Experimental data reported in US20130012429A1, “ANTI-VIRAL THERAPY” (priority 2011, published 2013).
# Entries after “also recorded” stand apart in the source; their conditions may differ. No end group written: not given here.
# Columns and labels:
# [1] = system: BMP/SMAD signalling pathway; test: HJV, SMAD6 and SMAD7 mRNA in uninfected hepatoma (Hep3B) cells incubated with TNF-alpha (qRT-PCR); assay type: cell-based, human
# Description: (§1) RNA extraction and cDNA synthesis were carried out by using either RNeasy kits with QIAshredder homogenization (both Qiagen) and the High capacity RNA-to-cDNA kit (Applied Biosystems), or by using the Cells-to-Ct kit (Applied Biosystems), all according to the manufacturers' protocols. qRT-PCR reactions were performed on an Applied Biosystems Fast 7500 Real-Time PCR System (Applied Biosystems). Gene expression was assessed using inventoried Taqman Gene Expression Assays (Applied Biosystems) (see table 4 for assay codes) with Taqman Gene Expression Master Mix (Applied Biosystems) following the manufacturer's instructions. cDNA was diluted in Nuclease-Free Water (Ambion) to achieve a final concentration of 1-3 ng/uL. Samples were run in duplicate and gene expression levels were quantified relative to glyceraldehyde-3-phosphate dehydrogenase (GAPDH) mRNA expression using the delta Ct method; in some cases relative expression was then quantified further by normalizing to the untreated controls (delta-delta Ct method).
# (§2) The hepatoma cell line Hep3B were maintained in MMEM supplemented with 10% foetal calf serum (PAA), 2 mM glutamine, 100 U/mL penicillin, 0.1 mg/mL streptomycin (all Sigma). HuH7 and HuH7.5 cells were cultured in DMEM supplemented as above. HuH7.5 cells infected at a MOI of 0.02 or hepatoma cells pre-treated for 48 h with TNF-alpha at 20 ng/mL were incubated overnight with titrations of human recombinant BMP6 or BMP9, and in the case of TNF-alpha treated cells IL-6 (all R&D Systems). Titrations of TNF-alpha were applied for 48 h prior to RNA extraction. A neutralizing anti-TNF-alpha antibody (clone 1825), (R&D Systems) supplemented the culture medium of HCV infected HuH7.5 cells at 0.2 μg/mL and was added at each sub culture from 2 days post infection to the end of the infection course. Uninfected cells were cultured and treated in parallel with the HCV infected cells.
# [2] = system: SMAD1/5/8 phosphorylation; test: Western blot of p-SMAD1/5/8 in Hep3B cells pre-treated with TNF-alpha and exposed to BMP6; assay type: cell-based, human
# Description: Hep3B cells were exposed to TNF-alpha at 20 ng/mL for 48 hours before the addition of BMP6 at an end concentration of 2 nM. Lysates were harvested at either 1 h or 18 h post addition of BMP6. Briefly, cells were trypsinised and lysed for 20 min on ice in NP40 1% buffer supplemented with protease inhibitors (Sigma) at 1:500 and phosphatase inhibitor cocktail 2 (Sigma) at 1:100. The lysates were spun at 4° C., 13,000 rpm for 5 minutes and the supernatants stored at −80° C. until the blot was performed. Briefly, the protein content of the lysates was normalised using the BCA assay (Pierce) and run on 12% SDS-PAGE mini gels. Gels were blotted onto nitrocellulose membranes (GE Healthcare) and then blocked for 1 hour at room temperature in PBS containing 5% (w/v) milk. Membranes were then probed overnight at 4° C. in TBS-TWEEN containing 5% (w/v) BSA with the following primary antibodies: mouse anti-beta-actin (loading control) (Sigma), mouse anti-rabbit IgG (negative control) (Dako), rabbit anti-pSMAD1/5/8 (Cell Signalling), or rabbit anti-H.Pylori (negative control) (Dako). […] Membranes were developed using ECL reagent (GE Healthcare), films were scanned using an AlphaScan (Alpha Innotech) running Epson Scan software (Seiko Epson), and band intensities were determined using ImageQuant5.2 (Molecular Dynamics).
# [3] = system: HAMP mRNA; test: HAMP mRNA induction by BMP6, BMP9 or IL-6 in hepatoma cells pre-treated with TNF-alpha (qRT-PCR); assay type: cell-based, human; settings: TNF-alpha treatment
# Description: as §1, §2
# [4] = system: HCV (Jc1 HCV strain); test: Antiviral experiments: HCV-RNA in supernatants and cells of HCV-infected HuH7.5 cells (qRT-PCR); assay type: cell-based, hepatitis C virus
# Text: The Jc1 HCV strain was produced as described previously (Reference 20). Briefly, HuH7.5 cells were transfected with Jc1 RNA by electroporation and supernatants harvested 14-20 days post transfection. HuH7.5 cells were infected at a multiplicity of infection (MOI) of 0.02 unless otherwise stated. Infection was allowed to proceed for 9-11 days at which point infection was greater than 90% as determined by immunofluorescence (also described in Reference 20).
# 5 day time course: cells infected as described above at a MOI of 0.02 for 2 h were plated and then immediately treated with BMP6 at the doses stated in the figures for the duration of the infection. 10 day time course: cells infected for 2 h were plated and incubated for 3 days. Cells were sub-cultured and BMP6 added at the stated doses. Additional doses of the same concentration were applied at further sub-culturing to maintain the dose. For both time courses, IFNa (PBL Biomedical Laboratories) was added at 1000 U overnight either at day 4 (5 day time course) or day 9 (10 day time course). Supernatant RNA extraction was performed using QIAamp viral RNA extraction kit and total cellular RNA was extracted using RNeasy kit (both Qiagen). cDNA was then transcribed using the Superscript III Reverse transcriptase (Invitrogen) (random hexamers), all according to the manufacturers' protocols. HCV-RNA levels were measured using qRT-PCR in a LightCycler 480 Real-Time PCR System (Roche). cDNA at 10-100 ng/uL was amplified using RC1 (5′ […] 3′ (SEQ ID NO:3)) and RC21(5′ […] 3′ (SEQ ID NO:4)) primers. Each reaction was run in duplicate. HCV-RNA levels were quantified using a standard curve derived from HCV Jc1 cDNA.
# [5] = system: Influenza A Virus Strain PR8; assay type: cell-based; settings: infected HuH7 cells mixed 1:10 with uninfected, cultured 24 hours; compared with interferon alpha and beta; FIG. 2
# [6] = 1 uM hepcidin peptide added 3 days after HCV inoculation, a further 7 days, FIG. 11
molecule,measurement,setting,value
TNF-alpha,HJV mRNA levels,[1]; FIG. 5e,reduced
same,SMAD6 mRNA,[1]; FIG. 5f,increased
same,SMAD7 mRNA,[1]; FIG. 5f,increased
same,inhibition of SMAD1/5/8 phosphorylation stimulated by BMP6,"[2]; 18 hr exposure to BMP6, TNF-alpha pre-treatment",~35%
same,p-SMAD1/5/8 after incubation with BMP6,"[2]; Hep3B cells, BMP6 for both 1 hr and 18 hr, FIG. 9a",reduced
same,mean suppression of HAMP mRNA upregulation in response to BMP6,[3]; FIG. 9b,16.8 fold
same,mean suppression of HAMP mRNA upregulation in response to BMP9,[3]; FIG. 9c,4.3 fold
same,hepcidin response to IL-6,[3]; FIG. 10,blunted
"hepcidin: hepcidin peptide, the iron regulatory hormone encoded by HAMP, added exogenously at 1 uM (DTHFPICIFCCGCCHRSKCGMCCKT; ends and bridges not checked; cysteine pairing not given here; UniProt P81172 60-84, looked up)",HCV RNA in cells,[4]; [6],not significantly altered
same,HCV RNA in supernatant,[4]; [6],not significantly altered
same,effect on HCV replication,[4]; FIG. 11,No specific effect
"BMP6: human recombinant BMP6 (R&D Systems), a bone morphogenetic protein that stimulates the BMP/SMAD signalling pathway (protein, UniProt P22004 375-513, looked up) Bone morphogenetic protein 6: SASSRRRQQSRNRSTQSQDVARVSSASDYNSSELKTACRKHELYVSFQDLGWQDWIIAPKGYAANYCDGECSFPLNAHMNATNHAIVQTLVHLMNPEYVPKPCCAPTKLNAISVLYFDDNSNVILKKYRNMVVRACGCH","viral RNA in supernatants, established infection","[4]; 2 nM BMP6 added after 3 days of HCV replication, measured after a further 7 days",reduced modestly
same,"viral RNA in supernatants, established infection","[4]; 6 nM BMP6 added after 3 days of HCV replication, measured after a further 7 days",reduced modestly
same,culture supernatant HCV RNA after 5 days,"[4]; 5 days post-infection, BMP6 at all doses for the duration of the infection, IFNa overnight, FIG. 12b",significantly reduced; also recorded: significantly lower
same,"viral RNA in supernatants, established infection","[4]; 10 days post-infection, 18 nM BMP6 for 7 days or IFNa overnight, FIG. 12c",lower
same,"cellular HCV RNA, established infection","[4]; 10 days post-infection, 18 nM BMP6 for 7 days or IFNa overnight, FIG. 12d",significantly reduced; also recorded: lower
same,accumulation of HCV RNA in culture supernatants over time,"[4]; BMP6 added immediately after infecting HuH7.5 cells, 5 day time course, FIG. 12a",severely restricted; also recorded: reduced
same,suppression of HCV growth,"[4]; in vitro live virus model, over 5 days",over 90%
same,spread of the Influenza virus (level of haemagglutinin),[5],restricts spread of the Influenza virus
